SMILES strings stand for the structures.

This is an account of results in publication PMC11661376, “A2B adenosine receptor-triggered intracellular calcium mobilization: Cell type-dependent involvement of Gi, Gq, Gs proteins and protein kinase C” (Research Square, 2024).

The test has as its target T1, P2Y1 receptor (P2Y1R) (Homo sapiens, UniProt P47900).
T1 construct: gene P2RY1; native receptor in T24 and HEK293 cells
The test can be described thus: agonist-induced intracellular Ca2+ mobilization (FLIPR) in T24 cells. In kind it is cell-based. For orientation: A change in cytosolic calcium serves as a functional read-out for many receptors and channels.

T1 sequence (P47900 whole entry): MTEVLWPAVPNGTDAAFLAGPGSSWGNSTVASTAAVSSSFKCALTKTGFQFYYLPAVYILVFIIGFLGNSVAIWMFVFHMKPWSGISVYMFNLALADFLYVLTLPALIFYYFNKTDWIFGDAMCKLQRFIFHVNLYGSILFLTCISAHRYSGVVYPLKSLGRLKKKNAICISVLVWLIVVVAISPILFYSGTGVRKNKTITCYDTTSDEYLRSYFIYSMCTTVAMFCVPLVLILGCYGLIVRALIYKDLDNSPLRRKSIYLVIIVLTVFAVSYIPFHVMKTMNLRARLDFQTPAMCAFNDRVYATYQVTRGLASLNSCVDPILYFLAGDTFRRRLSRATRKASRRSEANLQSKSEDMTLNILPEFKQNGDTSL

The EC50 is the midpoint of the concentration-response curve. A lower EC50 goes with higher potency in that assay. In turn, `CSc1nc(N)c2ncn([C@H]3[C@H](O)[C@H](O)[C@]4(COP(=O)(O)OP(=O)(O)O)C[C@H]34)c2n1` [MRS2365] came in with an EC50 of 1.38 ± 0.26 nM.
